Results on 22 molecules are retold here after PubChem BioAssay (NCI).

Structures are written as SMILES.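 All cell lines were grown in 96-well plates and treated with compound for 48 hours. TGI: total growth inhibition.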 Some results are limits rather than exact numbers.

Holding throughout (assay): inhibition of tumour cell growth, NCI panel, 48 h
In assay [1] the test system is SK-MEL-28 melanoma.
Assay [2] deals with SNB-19 CNS.
In assay [3] the test system is SF-295 CNS.
The subject of assay [4] is SNB-75 CNS.
For assay [5], the system named is UACC-62 melanoma.
The test system of assay [6] is 786-0 renal.
For assay [7], the system named is MALME-3M melanoma.
For assay [8], the system named is CAKI-1 renal.
For assay [9], the system named is CCRF-CEM leukemia.
Assay [10] concerns HL-60(TB) leukemia.
The test system of assay [11] is BT-549 breast.
In assay [12] the test system is HCT-15 colon.
Assay [13] relates to OVCAR-4 ovarian.

For the molecule `CCOc1ccc(N2C(=O)NC3(c4ccccc4)N(C)C(=O)N(C)C23c2ccccc2)cc1` (stereo not given), the TGI in assay [1] was more than 100 µM; in [2], more than 100 µM; in [3], more than 100 µM; in [4], 63.5 µM; in assay [5], more than 100 µM; in assay [6], more than 100 µM. The TGI in assay [7], in assay [8], in assay [9], in [10] and in assay [11] was more than 100 µM each time.
In the case of `O=C1C=CC(=O)c2c(O)c(NCCO)c(Cl)c(O)c21`, the TGI is 3.65 µM in [1]; 6.47 µM in assay [12]; more than 10 µM in assay [2]; 4.81 µM in [3]; more than 6.54 µM in assay [4]; 3.47 µM in [5]. For the same molecule, the TGI in [6] is more than 10 µM; in assay [13], 1.49 µM; in assay [7] it was 2.71 µM; in assay [8] it was more than 10 µM; in assay [9], more than 10 µM; in assay [10], 5.95 µM. The TGI in [11] was more than 5.74 µM.
In the case of `O=C(CCc1ccc(O)c(O)c1)NCCc1ccccc1`, the TGI in assay [1] is more than 100 µM; in assay [12] it was more than 100 µM; in [2], more than 100 µM; in assay [3], more than 100 µM; in assay [4] it was more than 100 µM; in assay [5] it was more than 65.2 µM. In addition, the TGI in assay [6] was more than 100 µM; in assay [13] it was more than 54.2 µM; in assay [7] it was more than 100 µM; in [8], 41 µM; in assay [9], more than 90.8 µM; in [10] it was 34 µM. The TGI in assay [11] was more than 89.1 µM.
For the molecule `Clc1cc2nc(C3CCCCO3)[nH]c2cc1Cl` (stereo not given), the TGI in [1] is more than 100 µM; in assay [12], more than 100 µM; in assay [2], more than 100 µM; in assay [3], more than 100 µM; in [4], 58.4 µM; in assay [5], more than 100 µM. In addition, the TGI in assay [6] is more than 91.9 µM; in [13] it was more than 100 µM; in assay [7], more than 100 µM; in [8], more than 100 µM; in [9], more than 100 µM; in assay [10], more than 53.5 µM. In addition, in assay [11], the TGI stood at 68.1 µM.
On to `CCOc1cc(/C=N/c2nc3cc4sc(/N=C/c5ccc(O)c(OCC)c5)nc4cc3s2)ccc1O`, for which the TGI in assay [1] was 42.7 µM; in assay [12], more than 100 µM; in assay [2], more than 100 µM; in assay [3], more than 100 µM; in [4], more than 100 µM; in assay [5], more than 100 µM. In addition, the TGI in [6] was more than 100 µM; in assay [13] it was more than 100 µM; in [7], more than 100 µM; in assay [8], more than 100 µM; in assay [10] it was 19.9 µM; in assay [11], more than 100 µM.
On to `COc1ccc(/C=C2\C[C@H]3[C@@H]4CC=C5C[C@@H](OC(C)=O)CC[C@]5(C)[C@H]4CC[C@]3(C)C2=O)cc1OC`, for which the TGI in assay [1], in assay [12], in assay [2], in [3], in [4] and in assay [5] was more than 100 µM throughout. In addition, the TGI in assay [6] was more than 100 µM; in assay [13], more than 100 µM; in [7], more than 100 µM; in assay [8], more than 100 µM; in [9] it was more than 100 µM; in [10], 78.9 µM. The same molecule gave a TGI in [11] of more than 100 µM.
On to `COc1ccc2nc3cc([N+](=O)[O-])ccc3c(NNc3ccc([N+](=O)[O-])cc3)c2c1`, for which the TGI in assay [1] is more than 100 µM; in assay [12], more than 100 µM; in assay [2], more than 76.8 µM; in assay [3], more than 100 µM; in assay [4] it was more than 100 µM; in assay [5], more than 50.7 µM. Also, the TGI in assay [6] is more than 100 µM; in assay [13] it was more than 100 µM; in assay [7], more than 92.5 µM; in [8] it was 29.6 µM; in [9] it was 98.6 µM; in assay [10], 54.2 µM. In assay [11], the TGI was more than 100 µM.
Regarding `CCOC(=O)c1cc(C2=CCNC2=O)c(-c2cc(C)no2)[nH]1`, the TGI in assay [1], in assay [12], in assay [2], in assay [3], in [4] and in assay [5] was more than 100 µM throughout. In addition, the TGI in [6] was more than 100 µM; in [13], more than 100 µM; in assay [7], more than 100 µM; in assay [8] it was more than 100 µM; in assay [9], more than 100 µM; in [10], 56.8 µM. This molecule also displayed a TGI in [11] of more than 100 µM.
With `O=C(CC(Cc1ccccc1)c1ccc(Oc2ccccc2)cc1)Nc1cccc(Cl)c1` (stereo not given), the TGI in [1] was more than 100 µM; in [12], more than 100 µM; in assay [2] it was more than 100 µM; in assay [3] it was 15.4 µM; in assay [4], 56.6 µM; in [5], 14.8 µM. Besides, the TGI in assay [6] was more than 100 µM; in assay [13], more than 100 µM; in assay [7], more than 100 µM; in assay [8] it was more than 100 µM; in assay [9], 21 µM; in assay [10] it was 10.2 µM. The molecule further showed a TGI in assay [11] of 75.9 µM.
As for `CN1CN(c2ccccc2)C2(CCN(C3Nc4ccccc4O3)CC2)C1=O` (stereo not given), the TGI in assay [1] was 47.2 µM; in [12] it was 28.8 µM; in assay [2], 74.4 µM; in [3], 33.6 µM; in assay [4], 62.3 µM; in [5], 31 µM. Moreover, the TGI in assay [6] is 49.6 µM; in assay [7], 38 µM; in assay [8], more than 100 µM; in assay [9] it was 57.6 µM; in assay [10], 43.5 µM; in assay [11] it was 37.3 µM.
Take `C=C[C@]1(C)CC(=O)C(C(C)C=O)[C@]12C(=O)Oc1cccc(C)c1C2=O` (stereo not given in full): the TGI in [1] stood at 29.2 µM; in assay [12], 28.3 µM; in assay [2], 24.6 µM; in [3], 28.9 µM; in [4], 30.8 µM; in assay [5], 31 µM. The TGI in assay [6] is 30 µM; in assay [13], 35.5 µM; in [7] it was 34.5 µM; in [8], 27.6 µM; in assay [9] it was 17.6 µM; in [10], 32.3 µM. In assay [11], the TGI is 28.4 µM.
Regarding `O=c1sc(Nc2ccc3ccccc3c2Cl)nc2ccccc12`, the TGI in assay [1], in [12], in assay [2], in assay [3], in assay [4] and in [5] was more than 100 µM in each case. Moreover, the TGI in [6], in [13], in [7], in assay [8], in assay [9] and in assay [10] was more than 100 µM throughout. Besides, in assay [11], the TGI is more than 100 µM.
`CC(C)C1CC(CO)(CNc2nc(N)nc(Cl)c2/C=N\O)C1` (stereo not given): the TGI in assay [1] was 26.1 µM; in assay [12] it was 32.7 µM; in [2] it was more than 100 µM; in assay [3], more than 68.2 µM; in [4], 43.6 µM; in assay [5], 25.4 µM. In addition, the TGI is 46.4 µM in [6]; 28.3 µM in [13]; 16 µM in assay [7]; 33.7 µM in assay [8]; more than 79.2 µM in assay [9]; 29.1 µM in assay [10]. This molecule gave a TGI in assay [11] of 28.7 µM.
Regarding `COc1ccc(Cc2cc(OC)c(OC)c(OC)c2)cc1`, the TGI was more than 100 µM in assay [1]; more than 30.9 µM in [12]; more than 100 µM in [2]; more than 29.4 µM in assay [3]; more than 18.5 µM in [4]; more than 100 µM in assay [5]. Besides, the TGI in [6] was more than 100 µM; in [13], more than 100 µM; in assay [7], more than 100 µM; in assay [8], more than 51.7 µM; in assay [9], 16.9 µM; in [10], 0.308 µM. This molecule also yielded a TGI in assay [11] of 75.6 µM.
With `CC(=O)c1cc(CC2Cc3cc4c(cc3C2=O)CCC4)cc2c1CCC2` (stereo not given), the TGI in assay [1], in [12], in assay [2], in assay [3], in assay [4] and in assay [5] was more than 100 µM throughout. Also, the TGI in assay [6] was more than 100 µM; in assay [13] it was more than 100 µM; in assay [7], more than 100 µM; in assay [8] it was more than 100 µM; in assay [9], more than 100 µM; in [10] it was 56.2 µM. The TGI in assay [11] was more than 100 µM.
As to `COc1ccc(-c2[nH]c(-c3ccc(OC)cc3)c(-c3ccccn3)c2-c2ccccn2)cc1`, the TGI in [12], in assay [2], in [3], in [4], in [5] and in assay [6] was more than 100 µM each time. Also, the TGI in assay [7] is more than 100 µM; in assay [8], more than 100 µM; in assay [9] it was more than 100 µM; in [10], more than 100 µM; in assay [11], 99.9 µM.
As to `Cc1cccc2c(N)c3cccc(C(=O)NCC[N+](C)(C)Cc4ccc(S(C)(=O)=O)cc4)c3nc12`, the TGI in [1], in [12], in assay [2], in [3], in assay [4] and in assay [5] was more than 100 µM in each case. For the same molecule, the TGI is more than 100 µM in assay [6]; more than 100 µM in assay [13]; more than 100 µM in assay [7]; more than 100 µM in assay [8]; more than 62 µM in assay [9]; 38.6 µM in assay [10]. In assay [11], this molecule displayed a TGI of more than 100 µM.
As for `O=[N+]([O-])c1ccc(Cc2nc3cc4ccccc4cc3[nH]2)cc1C(F)(F)F`, the TGI in assay [1] was more than 100 µM; in assay [12] it was more than 100 µM; in [2] it was 39 µM; in assay [3], 29 µM; in assay [4], 37.3 µM; in assay [6] it was 25.4 µM. The TGI in [13] was 46.8 µM; in assay [7], 25.1 µM; in assay [8], 26.7 µM; in assay [9], more than 100 µM; in [10], more than 100 µM; in [11] it was 43 µM.
With `N#CC(NNC(=O)c1c(Cl)c(Cl)c(Cl)c(Cl)c1-c1nc2ccc(C(=O)c3ccccc3)cc2[nH]1)c1ccccc1` (stereo not given), the TGI was more than 100 µM in assay [1]; more than 100 µM in [12]; 99.2 µM in [2]; 22.1 µM in assay [3]; 27.8 µM in [4]; 42.9 µM in assay [6]. In addition, the TGI was more than 100 µM in [13]; more than 100 µM in [7]; more than 100 µM in assay [8]; more than 100 µM in assay [9]; 45.6 µM in [10]; more than 100 µM in [11].
For `Cc1ccc(C(=O)O)c(/C=C2\Cc3cc(C)cc(C)c3C2=O)c1`, the TGI in assay [1], in [12], in [2], in assay [3], in [4] and in assay [5] was more than 100 µM in each case. Further, the TGI in assay [6], in [7], in assay [8], in assay [9], in assay [10] and in [11] was more than 100 µM each time.
For the molecule `CCCCCCc1cc2cc(C(=O)NCc3ccccc3)c(=N)oc2cc1O`, the TGI in assay [1], in assay [12], in [2], in assay [4], in assay [5] and in assay [6] was more than 100 µM in each case. Further, the TGI in assay [13], in assay [7], in assay [8], in [9], in assay [10] and in assay [11] was more than 100 µM throughout.
As for `CC1=NNC(=O)C1C1CC(c2c[nH]c3ccccc23)=NN(c2ccccc2)C1=O` (stereo not given), the TGI in assay [1], in [12], in assay [2], in assay [3], in assay [4] and in [5] was more than 100 µM in each case. Besides, the TGI was 57.7 µM in assay [6]; more than 100 µM in assay [7]; more than 100 µM in [8]; 72.6 µM in assay [9]; 92.4 µM in assay [10]; more than 100 µM in assay [11].
